The source of these data is paper PMC10016662 (PLOS Pathogens, 2023).

Where two headings read alike, the source gives them in different places.

The experiment deals with T1, HRTV Gc (Heartland virus, UniProt J3WAX0).
T1 construct: gene GP
Nature of the experiment: biochemical. The experiment is classed as binding.

T1 sequence (J3WAX0 567-999 limits assumed): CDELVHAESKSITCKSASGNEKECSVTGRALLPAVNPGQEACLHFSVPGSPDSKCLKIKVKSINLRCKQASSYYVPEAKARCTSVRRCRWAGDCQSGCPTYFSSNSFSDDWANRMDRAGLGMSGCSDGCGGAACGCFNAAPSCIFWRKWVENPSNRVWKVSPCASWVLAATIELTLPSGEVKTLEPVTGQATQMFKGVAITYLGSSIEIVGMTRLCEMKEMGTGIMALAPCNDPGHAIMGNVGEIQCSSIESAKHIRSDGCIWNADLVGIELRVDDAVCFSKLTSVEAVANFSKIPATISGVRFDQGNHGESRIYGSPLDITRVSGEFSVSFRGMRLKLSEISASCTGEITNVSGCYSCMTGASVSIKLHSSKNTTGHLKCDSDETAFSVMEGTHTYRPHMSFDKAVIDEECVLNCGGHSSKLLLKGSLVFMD

In the case of `CCCCCCCC/C=C\CCCCCCCC(=O)OC[C@H](COP(=O)([O-])OCC[N+](C)(C)C)OC(=O)CCCCCCC/C=C\CCCCCCCC` [DOPC], the Kd – broadly, the free concentration of one partner at which half of the binding sites on the other are occupied at equilibrium, for simple one-to-one binding – came to 2100 nM.

For the compound GalCer, the Kd (read-out: KD) was 600 nM.

For GlcCer, the Kd (read-out: KD) was below 1 nM.
